Source: patent US8574563B2 (Bristol-Myers Squibb Company, priority 2006, dated 2013)
Where two headings read alike, the source gives them in different places.

System: HCV 1b-377-neo replicon cells
Assay: HCV replicon assay, HCV 1b-377-neo replicon cells (1b FRET)
Assay type: cell-based, Hepatitis C virus genotype 1b
Method in brief: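 Compounds were tested in genotype 1b subgenomic replicon cells carrying a neomycin marker, alongside a matched replicon line with an NS5A Y2065H substitution that confers resistance to a reference NS5A inhibitor.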

[1] = Hepatitis C virus, HCV 1b-377-neo replicon cells, HCV 1b genotype, read-out: EC50 range against HCV 1b (Table 2, Range)

| SMILES | EC50 [1] [nM] | EC50 (HCV 1b replicon, FRET, read-out: 1b Fret (EC50 μM)) [nM] | EC50 (HCV 1b-377-neo replicon cells, HCV 1b genotype, read-out: EC50 range against HCV 1b (Table 2, Range)) [nM] |
| --- | --- | --- | --- |
| COC(=O)N[C@H](C(=O)N1CCC[C@H]1c1nc(-c2ccc(-c3ccc(-c4cnc([C@@H]5CCCN5C(=O)[C@@H](NC(=O)OC)C5CCOCC5)[nH]4)cc3)cc2)c[nH]1)C(C)C [Example F58, methyl ((1S)-1-(((2S)-2-(4-(4′-(2-((2S)-1-((2S)-2-((methoxycarbonyl)amino)-2-(tetrahydro-2H-pyran-4-yl)acetyl)-2-pyrrolidinyl)-1H-imidazol-5-yl)-4-biphenylyl)-1H-imidazol-2-yl)-1-pyrrolidinyl)carbonyl)-2-methylpropyl)carbamate] | 0.001 to 0.999 | – | – |
| CC(=O)N[C@H](C(=O)N1CCC[C@H]1c1nc(-c2ccc(-c3ccc(-c4c[nH]c([C@@H]5CCCN5C(=O)[C@@H](NC(C)=O)C(C)C)n4)cc3)cc2)c[nH]1)C(C)C [Example F60, N-((1S)-1-(((2S)-2-(4-(4′-(2-((2S)-1-((2S)-2-acetamido-3-methylbutanoyl)-2-pyrrolidinyl)-1H-imidazol-4-yl)-4-biphenylyl)-1H-imidazol-2-yl)-1-pyrrolidinyl)carbonyl)-2-methylpropyl)acetamide] | 0.001 to 0.999 | – | – |
| CCC(=O)N[C@H](C(=O)N1CCC[C@H]1c1nc(-c2ccc(-c3ccc(-c4c[nH]c([C@@H]5CCCN5C(=O)[C@@H](NC(=O)CC)C(C)C)n4)cc3)cc2)c[nH]1)C(C)C [Example F61, N-((1S)-2-methyl-1-(((2S)-2-(4-(4′-(2-((2S)-1-((2S)-3-methyl-2-(propionylamino)butanoyl)-2-pyrrolidinyl)-1H-imidazol-4-yl)-4-biphenylyl)-1H-imidazol-2-yl)-1-pyrrolidinyl)carbonyl)propyl)propanamide] | 1 to 99 | – | – |
| COCC(=O)N[C@H](C(=O)N1CCC[C@H]1c1nc(-c2ccc(-c3ccc(-c4c[nH]c([C@@H]5CCCN5C(=O)[C@@H](NC(=O)COC)C(C)C)n4)cc3)cc2)c[nH]1)C(C)C [Example F62, 2-methoxy-N-((1S)-1-(((2S)-2-(4-(4′-(2-((2S)-1-((2S)-2-((methoxyacetyl)amino)-3-methylbutanoyl)-2-pyrrolidinyl)-1H-imidazol-4-yl)-4-biphenylyl)-1H-imidazol-2-yl)-1-pyrrolidinyl)carbonyl)-2-methylpropyl)acetamide] | 1 to 99 | – | – |
| CNC(=O)N[C@H](C(=O)N1CCC[C@H]1c1nc(-c2ccc(-c3ccc(-c4c[nH]c([C@@H]5CCCN5C(=O)[C@@H](NC(=O)NC)C(C)C)n4)cc3)cc2)c[nH]1)C(C)C [Example F63, 1-methyl-3-((1S)-2-methyl-1-(((2S)-2-(4-(4′-(2-((2S)-1-(N-(methylcarbamoyl)-L-valyl)-2-pyrrolidinyl)-1H-imidazol-4-yl)-4-biphenylyl)-1H-imidazol-2-yl)-1-pyrrolidinyl)carbonyl)propyl)urea] | 0.001 to 0.999 | – | – |
| CCNC(=O)N[C@H](C(=O)N1CCC[C@H]1c1nc(-c2ccc(-c3ccc(-c4c[nH]c([C@@H]5CCCN5C(=O)[C@@H](NC(=O)NCC)C(C)C)n4)cc3)cc2)c[nH]1)C(C)C [Example F64, 1-ethyl-3-((1S)-1-(((2S)-2-(4-(4′-(2-((2S)-1-((2S)-2-((ethylcarbamoyl)amino)-3-methylbutanoyl)-2-pyrrolidinyl)-1H-imidazol-4-yl)-4-biphenylyl)-1H-imidazol-2-yl)-1-pyrrolidinyl)carbonyl)-2-methylpropyl)urea] | 1 to 99 | – | – |
| CC(C)[C@H](NS(=O)(=O)C(C)C)C(=O)N1CCC[C@H]1c1ncc(-c2ccc(-c3ccc(-c4cnc([C@@H]5CCCN5C(=O)[C@@H](NS(=O)(=O)N(C)C)C(C)C)[nH]4)cc3)cc2)[nH]1 [Example F65, N—((S)-1-((S)-2-(5-(4′-(2-((S)-1-((S)-2-(N,N-dimethylsulfamoylamino)-3-methylbutanoyl)pyrrolidin-2-yl)-1H-imidazol-5-yl)biphenyl-4-yl)-1H-imidazol-2-yl)pyrrolidin-1-yl)-3-methyl-1-oxobutan-2-yl)propane-2-sulfonamide] | – | 210 | 100 to 999 |
